# Test results: the supplement of paper PMC4862054
# Legend:
# Settings in all cases: incubation time: 72 h
# [1] = test system: MDA-MB-436; assay: drug sensitivity score (DSS), CellTiter-Glo (DSS (AUC-based score)); higher = stronger drug effect (viability inhibition or cytotoxicity); extreme values may be limits of the assay
# How it was run: (§1)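 Breast cancer cells were seeded into 384-well plates containing compound at 5 concentrations in 10-fold steps over a compound-specific 10,000-fold range and incubated 72 h. After CellTox Green and CellTiter-Glo readings, each plate was normalised to 0.1 % DMSO and a positive kill control. The drug sensitivity score rests on the area under the fitted dose-response curve.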
# [2] = test system: MDA-MB-453; assay: as above
# How it was run: as §1
# [3] = test system: SK-BR-3; assay: as above
# How it was run: as §1
# [4] = test system: HDQ-P1; assay: as above
# How it was run: as §1
# [5] = test system: CAL-85-1; assay: as above
# How it was run: as §1
# [6] = test system: MCF-10A; assay: as above
# How it was run: as §1
# [7] = test system: MDA-MB-231; assay: as above
# How it was run: as §1
# [8] = test system: CAL-51; assay: as above
# How it was run: as §1
# [9] = test system: CAL-148; assay: as above
# How it was run: as §1
# [10] = test system: BT-474; assay: as above
# How it was run: as §1
# [11] = test system: HCC1599; assay: as above
# How it was run: as §1
# [12] = test system: MDA-MB-468; assay: as above
# How it was run: as §1
# [13] = test system: Hs578T; assay: normalised viability (% of control), CellTiter-Blue; higher = more viable cells (about 100 = DMSO control)
# Experimental: (§2)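 DSRT, CellTiter-Blue viability, 72 h incubation. Signal is normalised to DMSO and benzethonium chloride controls. Value is the normalised response at dose 3.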
# [14] = test system: MDA-MB-436; assay: as above
# Experimental: as §2
# [15] = test system: MDA-MB-453; assay: as above
# Experimental: as §2
# [16] = test system: SK-BR-3; assay: as above
# Experimental: as §2
# [17] = test system: HDQ-P1; assay: as above
# Experimental: as §2
# [18] = test system: CAL-85-1; assay: as above
# Experimental: as §2
# [19] = test system: CAL-120; assay: as above
# Experimental: as §2
# [20] = test system: HCC1937; assay: as above
# Experimental: as §2
# [21] = test system: BT-549; assay: as above
# Experimental: as §2
# [22] = test system: MDA-MB-231; assay: as above
# Experimental: as §2
# [23] = test system: CAL-51; assay: as above
# Experimental: as §2
# [24] = test system: MFM-223; assay: as above
# Experimental: as §2
# [25] = test system: CAL-148; assay: as above
# Experimental: as §2
# [26] = test system: BT-474; assay: as above
# Experimental: as §2
# [27] = test system: DU-4475; assay: as above
# Experimental: as §2
# [28] = test system: HCC1599; assay: as above
# Experimental: as §2
# [29] = test system: MDA-MB-468; assay: as above
# Experimental: as §2
SMILES,drug sensitivity score [1],drug sensitivity score [2],drug sensitivity score [3],drug sensitivity score [4],drug sensitivity score [5],drug sensitivity score [6],drug sensitivity score [7],drug sensitivity score [8],drug sensitivity score [9],drug sensitivity score [10],drug sensitivity score [11],drug sensitivity score [12],normalised viability ([13]; 100 nM) [%],normalised viability ([14]; 100 nM) [%],normalised viability ([15]; 10 nM) [%],normalised viability ([16]; 100 nM) [%],normalised viability ([20]; 100 nM) [%],normalised viability ([22]; 100 nM) [%],normalised viability ([26]; 100 nM) [%],normalised viability ([29]; 100 nM) [%],also measured
O=C(Nc1c[nH]nc1-c1nc2ccc(CN3CCOCC3)cc2[nH]1)NC1CC1 [AT9283],0,0,1.96,2.87,0,5.49,6.11,7.83,0,5.15,0,13.4,64.4,99,82.5,53,60.9,75.2,112,29.4,normalised viability ([17]; 10 nM): 112%; normalised viability ([18]; 10 nM): 85.7%; normalised viability ([19]; 100 nM): 57.3%; normalised viability ([21]; 100 nM): 86%; normalised viability ([23]; 10 nM): 100%; normalised viability ([24]; 100 nM): 64%; normalised viability ([25]; 10 nM): 82.7%; normalised viability ([27]; 10 nM): 97.5%; normalised viability ([28]; 100 nM): 94.8%
COc1cc(CCc2cc(NC(=O)c3ccc(N4CC(C)NC(C)C4)cc3)n[nH]2)cc(OC)c1 (centres undefined) [AZD4547],0,0.805,0,0,0,1.73,0,0,0,0,0,0,–,–,–,–,–,–,–,–,normalised viability ([13]; 10 nM): 92.7%; normalised viability ([14]; 10 nM): 102%; normalised viability ([15]; 1 nM): 107%; normalised viability ([16]; 10 nM): 97.5%; normalised viability ([17]; 1 nM): 112%; normalised viability ([18]; 1 nM): 101%; normalised viability ([19]; 10 nM): 94%; normalised viability ([20]; 10 nM): 91.8%; normalised viability ([21]; 10 nM): 109%; normalised viability ([22]; 10 nM): 124%; normalised viability ([23]; 1 nM): 103%; normalised viability ([24]; 10 nM): 59.2%; normalised viability ([25]; 1 nM): 97.5%; normalised viability ([26]; 10 nM): 131%; normalised viability ([27]; 1 nM): 100%; normalised viability ([28]; 10 nM): 83.7%; normalised viability ([29]; 10 nM): 108%
CCC/C=C/C=C/C(=O)O[C@H]1/C(=C/C(=O)OC)C[C@H]2C[C@H]([C@@H](C)O)OC(=O)C[C@H](O)C[C@@H]3C[C@H](OC(C)=O)C(C)(C)[C@](O)(C[C@@H]4C/C(=C/C(=O)OC)C[C@H](/C=C/C(C)(C)[C@]1(O)O2)O4)O3 [Bryostatin 1],0,0,10.8,1.62,0,0,0,6.93,0,1.75,0,0,–,–,–,84.1,103,97.2,102,101,normalised viability ([13]; 1 nM): 63%; normalised viability ([14]; 1 nM): 126%; normalised viability ([15]; 0.1 nM): 99%; normalised viability ([17]; 0.1 nM): 106%; normalised viability ([18]; 0.1 nM): 124%; normalised viability ([19]; 1 nM): 85.4%; normalised viability ([21]; 1 nM): 94.8%; normalised viability ([23]; 0.1 nM): 102%; normalised viability ([24]; 1 nM): 98.7%; normalised viability ([25]; 0.1 nM): 90.7%; normalised viability ([27]; 0.1 nM): 92.1%; normalised viability ([28]; 1 nM): 110%
CO[C@@H](C(=O)N1Cc2[nH]nc(NC(=O)c3ccc(N4CCN(C)CC4)cc3)c2C1)c1ccccc1 [Danusertib],4.68,0,0,3.68,0,12,5.32,9.2,3.57,5.14,0,18.3,67.1,95.1,79.6,62.4,99.9,79,80.8,59.4,normalised viability ([17]; 10 nM): 104%; normalised viability ([18]; 10 nM): 93.6%; normalised viability ([19]; 100 nM): 64.8%; normalised viability ([21]; 100 nM): 102%; normalised viability ([23]; 10 nM): 105%; normalised viability ([24]; 100 nM): 44%; normalised viability ([25]; 10 nM): 79.9%; normalised viability ([27]; 10 nM): 91%; normalised viability ([28]; 100 nM): 77.2%
O=S(=O)(c1cccc2cnccc12)N1CCCNCC1 [Fasudil],0,1.2,0,0,0,0,0,0,0,0,0,0,97.5,100,103,86.2,91.7,96,117,106,normalised viability ([17]; 10 nM): 103%; normalised viability ([18]; 10 nM): 97.7%; normalised viability ([19]; 100 nM): 89.4%; normalised viability ([21]; 100 nM): 95.6%; normalised viability ([23]; 10 nM): 112%; normalised viability ([24]; 100 nM): 93.6%; normalised viability ([25]; 10 nM): 93.1%; normalised viability ([27]; 10 nM): 107%; normalised viability ([28]; 100 nM): 100%
Cc1c(CN2CCN(C(=O)[C@H](C)O)CC2)sc2c(N3CCOCC3)nc(-c3cnc(N)nc3)nc12 [GDC-0980],8.47,17.5,18.5,14.1,11.8,12.6,9.56,14.7,12.4,8.66,2.28,10.1,82.2,85.6,96.1,45.3,76.7,59.2,90.2,85.3,normalised viability ([17]; 10 nM): 94%; normalised viability ([18]; 10 nM): 100%; normalised viability ([19]; 100 nM): 71.7%; normalised viability ([21]; 100 nM): 81.9%; normalised viability ([23]; 10 nM): 101%; normalised viability ([24]; 100 nM): 65.4%; normalised viability ([25]; 10 nM): 96.2%; normalised viability ([27]; 10 nM): 92.7%; normalised viability ([28]; 100 nM): 67.8%
